Data on ten molecules can be found in patent publication US20200079814A1, “Nucleotides comprising an N-[(S)-1-cyclobutoxycarbonyl]phosphoramidate moiety and analogs and application thereof” (priority 2017, published 2020).

“And” between values parts separate entries of the source, which are not always exact repeats. Equal values may be shown once. Read-outs that look alike come from different tables or passages of the source. Marks after values point to notes of the source that are not given here.

The nature of data set [1]: Stability in human liver S9 fraction. Here is the method:
(§1) Initial compositions comprising the prodrug of formula 1B.7 (the tested compounds) were prepared with a concentration of 10 mM in DMSO. From said compositions, 100-fold working solutions were prepared with a concentration of 100 μM in a mixture of acetonitrile:water with a volumetric ratio of 1:1.
(§2) The samples were then centrifuged, and the supernatant (150 μl) was sampled for analysis […]. The incubation was performed in two replicates, with each sample measured twice.
(§3) Samples were analyzed using an HPLC-MS/MS technique developed for each tested prodrug, wherein the chromatographic system 1290 Infinity II (Agilent Technologies) was combined with the tandem mass spectrometer QTRAP5500 (AB Sciex). […] Scanning in a total ion current mode (MS1) allowed us to identify a molecular ion for each compound, and basic product ions were recorded in MS2 mode. […] In quantitative chromatogram processing, the most intensive MRM transition was used for the analyte and the internal standard. […]
(§4) Half-life (T1/2) was found from the kinetics of tested prodrug elimination in an antiviral composition during incubation in a biological matrix. […] From linear dependence of log normalized areas of chromatographic peaks on time, the constant of elimination rate was calculated (k is linear section slope).

The conditions of data set [2]: pooled human blood plasma, 1 μM, 37° C. Here is the method: as §1, §2, §3, §4
Another data set can be described thus: physchem. The note with it: for half-life at 1 μM: simulated gi fluid. Here is the method:
as §1
b) Stability in Artificial Gastric and Intestinal Juices.
The tested composition comprising the prodrug of formula 1B.7 in a final concentration of 1 μM was incubated in artificial gastric juice (0.2% NaCl in 0.7% v/v HCl) and artificial intestinal juice (0.05M KH2PO4, pH 6.75). The incubation was performed in a Vortemp56 shaking incubator at 37° C. with stirring at a rate of 300 rev/min. […] The samples were then centrifuged, and the supernatant (150 μl) was sampled for analysis […]. The incubation was performed in two replicates, with each sample measured twice.
Samples were analyzed using an HPLC-MS/MS technique developed for each tested prodrug, wherein the chromatographic system 1290 Infinity II (Agilent Technologies) was combined with the tandem mass spectrometer QTRAP5500 (AB Sciex). When developing conditions for mass-spectrometric detection, the solutions of tested compounds in a mixture of acetonitrile-water 1:1 with a concentration of 100 ng/ml were injected directly into the mass spectrometer using a syringe pump with electrospray ionization in a positive ion mode. Scanning in a total ion current mode (MS1) allowed us to identify a molecular ion for each compound, and basic product ions were recorded in MS2 mode. Then, to attain maximum sensitivity, the MS/MS technique was optimized in MRM mode. In quantitative chromatogram processing, the most intensive MRM transition was used for the analyte and the internal standard. Separation was carried out by means of linear gradient elution chromatography on a YMC Triart C18 column (50×2 mm, 1.9 μm) in a mobile phase consisting of 0.1% formic acid in water and 0.1% formic acid in acetonitrile. Tolbutamide (Fluka) was used as the internal standard.
Half-life (T1/2) was found from the kinetics of tested prodrug elimination in an antiviral composition during incubation in a biological matrix. The computations were based on the values of chromatographic peak areas for compounds in test samples normalized to the internal standard signal. From linear dependence of log normalized areas of chromatographic peaks on time, the constant of elimination rate was calculated (k is linear section slope).

In a further data set the test system is HCV. The note with it: literature; cited from earlier work.
The test system of data set [3] is HIV strain NL4.3 carrying the GFP-reporter (NL4.3-GFP). As to the kind of experiment: microbe, parasite or virus in culture. Format: cell-based. The note with it: for EC50: Human immunodeficiency virus 1, SUP-T1, 45 h; for SI = CC50/EC50: SupT1 cells. The procedure: (§5) The antiviral activity of tested compounds was evaluated on the T-lymphocytes line, SupT1. The cells were infected with the HIV strain NL4.3 carrying a gene encoding the green fluorescent protein (NL4.3-GFP). A virus preparation was obtained by means of transfection of the 293T cells of […] DNA. After 48 hours of transfection, the medication was frozen and stored until being used. To increase the efficiency of infection, the suspension of SupT1 cells was sedimented from the infection mixture by centrifugation. Tested compounds were added to the cells immediately before adding the virus. After 2 hours of incubation, the infection mixture was replaced by a fresh culture medium with tested compounds. The efficiency of infection was evaluated after 45 hours by computing the percentage of fluorescence-bright cells against uninfected cell cultures. Concurrently, the cytotoxicity of tested compounds was evaluated in the same, but uninfected, cell line SupT1 using the XTT reagent. To determine antiviral activity and cytotoxicity, serial tenfold dilutions of the preparations were used (starting with 10 j-M for antiviral activity and from 100 μM for cytotoxicity). DMSO (0.1%) was used for negative control. The values of EC50, CC50 and SI (selectivity index) were found. The quality of tests was evaluated based on the following controls: signal to background ratio, integrase inhibitor raltegravir (1 μM), and reproducibility of test results. Emetine (0.03, 0.09, and 0.2 μM) was used as the reference for cytotoxicity evaluation.

The next data set deals with SupT1 cells. As to the kind of experiment: Cytotoxicity in uninfected SupT1 cells (XTT reagent). Format: cell-based. Here is the method: as §5
Data set [4] relates to HCV replicon, genotype 1b (gT1b HCV NS5B). As to the kind of experiment: Anti-HCV activity in Huh7 cells stably transfected with an HCV replicon. In kind it is cell-based. Here is the method: The antiviral activity of tested compositions comprising prodrugs was evaluated using an Huh7 human hepatocellular carcinoma cell line stably transfected with an HCV replicon. A cell suspension in a complete culture medium (DMEM 1X, Cellgro; cat. #10-013-CV) was transferred into 96-well plates (50 μl per well) with a final density of 7500 cells per well. The serial dilutions of tested prodrugs were prepared from a fresh 200-fold generic solution in DMSO with 11 concentration points dilution for each step, starting from 20 nM in a complete medium and were used as 2-fold solutions in two replicates. Minimum 4 hours after planting the cells, 50 μl of serial prodrug dilutions was added to each well. […] The plate with cells was incubated for 3 days at 37° C. under humidified 5% CO2. Upon completion of incubation, the medium was removed by turning the plate over and shaking it carefully. The cells were fixed for one minute with 100 μl of a 1:1 acetone:methanol solution, washed 3 times with a phosphate buffer (PBS), and blocked for 1 h at room temperature using a 10% fetal bovine serum (FBS) in PBS (150 μl/well). […] The reaction was stopped by 2N H2SO4 (100 μl/well), and OD490 was measured using the multifunctional reader Victor^3 V 1420 (Perkin Elmer). The values of EC50 for tested prodrugs were measured from an activity curve plotted using the GraphPad Prizm software.

Data set [5] can be described thus: Cytotoxicity in uninfected SupT1 cells (XTT reagent). In kind it is cell-based. The conditions noted are these: human, uninfected SupT1 cells (T-lymphocyte line). Here is the method: as §5
For data set [6] the following is noted: from M. J. Sofia et al. J. Med. Chem. 2010; cited from earlier work.
The conditions of data set [7]: from M. J. Sofia et al. J. Med. Chem. 2010; cited from earlier work. This is another data set of the same source.
The conditions of data set [8]: from M. J. Sofia et al. J. Med. Chem. 2010; cited from earlier work. The source holds these as a separate data set.
Data set [9] deals with HCV replicon, genotype 1b (gT1b HCV NS5B). The conditions noted are these: cited from earlier work; for EC50: from hcvdruginfo.ca.
The conditions of data set [10]: from M. J. Sofia et al. J. Med. Chem. 2010; cited from earlier work. The source holds these as a separate data set.
Data set [11] deals with Huh7 human hepatocellular carcinoma cell line. The conditions noted are these: from M. J. Sofia et al. J. Med. Chem. 2010; cited from earlier work.
[12] abbreviates: gT1b, from M. J. Sofia et al. J. Med. Chem. 2010.

Consider `C[C@H](N[P@](=O)(OC[C@H]1O[C@@H](n2ccc(=O)[nH]c2=O)[C@](C)(F)[C@@H]1O)Oc1ccccc1)C(=O)OC1CCC1` [Prodrug 1B.7, (S)-cyclobutyl 2-{(S)-[(2R,3R,4R,5R)-5-(3,4-dihydro-2,4-dioxo-2H-pyrimidin-1-yl)-3-hydroxy-4-methyl-4-fluoro-tetrahydrofuran-2-ylmethoxy]-phenoxy-phosphorylamino}-propanoate], for which the “metabolic rate in human S9 fraction, times faster than Sovaldi” value in data set [1] (versus Sovaldi) is 11 times. In addition, the “metabolic rate in human S9 fraction, times faster than compound 2.1” value in data set [1] (versus compound of formula 2.1) was 28 times. In addition, the T1/2 human plasma in [2] is recorded as greater than 24 h. For the same molecule, the “T1/2 SGF” value in “physchem” (artificial gastric juice, 1 μM, 37° C.) amounted to 12.7 h. The “T1/2 SIF” value in the data set “physchem” (artificial intestinal juice, 1 μM, 37° C.) is given as greater than 24 h. Moreover, the half-life at 1 μM in “physchem” is 12.7 to 17 h; in “physchem” (pH 6.75), greater than 20 h.

On to `COc1nc(N)nc2c1ncn2[C@@H]1O[C@H](COP(=O)(N[C@@H](C)C(=O)OCC(C)(C)C)Oc2cccc3ccccc23)[C@@H](O)[C@@]1(C)O` (stereo partly shown) [INX-08189], for which, in the data set with HCV, the half-maximal effective concentration (EC50) is 10 nM.

For the molecule `COc1nc(N)nc2c1ncn2C1O[C@H](COP(=O)(N[C@@H](C)C(=O)OC(C)C)Oc2ccccc2)[C@@H](O)[C@@]1(C)F` (stereo partly shown) [PSI-353661], the concentration for an effect of 90% (EC90) in the data set on HCV is 8 nM.

With `CC(C)OC(=O)[C@H](C)N[P@](=O)(CO[C@H](C)Cn1cnc2c(N)ncnc21)Oc1ccccc1` [TAF, temofovir alafenamide], in [3], the EC50 is 35 nM and the “SI = CC50/EC50” value came out at 2857. The same molecule returned a CC50 in the data set on SupT1 cells greater than 100000 nM.

With `C[C@H](N[P@](=O)(OC[C@H]1O[C@@H](n2ccc(=O)[nH]c2=O)[C@](C)(F)[C@@H]1O)Oc1ccccc1)C(=O)OC1CC1` [Prodrug 2.2, (S)-cyclopropyl 2-((S)-(((2R,3R,4R,5R)-5-(2,4-dioxo-3,4-dihydropyrimidin-1(2H)-yl)-3-hydroxy-4-methyl-4-fluoro-tetrahydrofuran-2-yl)methoxy)-(phenoxy)-phosphorylamino)-propanoate], the EC90 in data set [4] (10% FBS) was determined as 410 nM. For the same molecule, the half-maximal effective concentration (EC50) in data set [4] (Hepatitis C virus, Huh-7, 10% FBS) came out at 73 nM.

In the case of `C[C@H](Cn1cnc2c(N)ncnc21)OC[P@@](=O)(N[C@@H](C)C(=O)OC1CCC1)Oc1ccccc1` [Prodrug 1A.1, (S)-cyclobutyl 2-((S)-(((R)-1-(6-amino-9H-purin-9-yl)propan-2-yloxy)methyl) (phenoxy)phosphorylamino)-propanoate], in data set [3], the half-maximal effective concentration (EC50) was 27 nM and the “SI = CC50/EC50” value is reported as greater than 3704. In [3] (SupT1 HIV test, versus TAF), the “selectivity, times higher than TAF” value was 1.4 times. In [5], the cytotoxic concentration (CC50) is greater than 100000 nM.

On to `C[C@H](Cn1cnc2c(N)ncnc21)OC[P@](=O)(N[C@@H](C)C(=O)OC1CCC1)Oc1ccccc1` [Prodrug 1A.2, (S)-cyclobutyl 2-((R)-(((R)-1-(6-amino-9H-purin-9-yl)propan-2-yloxy)methyl) (phenoxy)phosphorylamino)-propanoate], for which, in data set [3], the midpoint of the response, the EC50, lay at 38 nM and the “SI = CC50/EC50” value is recorded as greater than 2632. This molecule showed a cytotoxic concentration (CC50) in [5] greater than 100000 nM.

For `C[C@H](NP(=O)(OC[C@H]1O[C@@H](n2ccc(=O)[nH]c2=O)[C@](C)(F)[C@@H]1O)Oc1ccccc1)C(=O)OC1CCCCC1` (stereo partly drawn) [Prodrug 2.1, cyclohexyl (S)-2-{[(2R,3R,4R,5R)-5-(2,4-dioxo-3,4-dihydro-2H-pyrimidin-1-yl)-4-fluoro-3-hydroxy-4-methyl-tetrahydrofuran-2-ylmethoxy]-phenoxy-phosphorylamino}-propionate], the “T1/2 SGF” value in [6] is recorded as 17* h. In data set [7], the T1/2 human plasma is listed as >24* h. In data set [8], the “T1/2 SIF” value is on record as >20* h. The concentration for an effect of 90% (EC90) in data set [9] (setting [12]) was 250 nM. Moreover, the “T1/2 human S9” value in data set [10] is 1.4 h.

On to `CC(C)OC(=O)[C@H](C)NP(=O)(OC[C@H]1O[C@@H](n2ccc(=O)[nH]c2=O)[C@](C)(F)[C@@H]1O)Oc1ccccc1` (stereo partly drawn) [Sovaldi ®, isopropyl (S)-2-{[(2R,3R,4R,5R)-5-(2,4-dioxo-3,4-dihydro-2H-pyrimidin-1-yl)-4-fluoro-3-hydroxy-4-methyl-tetrahydrofuran-2-ylmethoxy]-phenoxy-phosphorylamino}-propionate], for which the “T1/2 SGF” value in data set [6] was 22.0* h. Also, the CC90 in data set [11] was greater than 100000 nM. In [7], the T1/2 human plasma is >24* h. Further, in data set [8], the “T1/2 SIF” value was >24* h. Further, the EC90 in [9] (setting [12]) was 520 nM; in data set [9] (gT1b, from M. J. Sofia et al. J. Med. Chem. 2010, listed as Sovaldi®), 590 nM; in data set [9] (genotype 1b (gT1b) HCV) it was 590 nM. Also, the EC50 in [9] (gT1b) and in data set [9] (genotype 1b (gT1b) HCV) was 45 to 170 nM in each case. Moreover, the “T1/2 human S9” value in data set [10] was 0.54 h and 0.57 h.

Regarding `CC(C)(CO)C(=O)SCCOP(=O)(NCc1ccccc1)OC[C@H]1OC(n2cnc3c(=O)[nH]c(N)nc32)[C@](C)(O)[C@@H]1O` (stereo partly shown) [IDX-184], the half-maximal effective concentration (EC50) in the data set on HCV is 400 nM.
